Data reported in PubChem BioAssay (NCI).
Several values for one entry are separate records, joined by “and”; a condition that tells them apart may be missing. Equal entries are not always repeated.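 Five concentrations, 48 hours, 96-well plates. Abbreviation: GI50, concentration required for 50% inhibition of growth. TGI is the concentration that stops growth completely.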

Tests used:
Experiment in all cases: inhibition of tumour cell growth, NCI panel, 48 h
[1] = system: HCT-15 colon
[2] = system: MDA-MB-231 breast
[3] = system: NCI-H460 lung
[4] = system: RXF 393 renal
[5] = system: SNB-19 CNS
[6] = system: SW-620 colon
[7] = system: UACC-257 melanoma

Structure (SMILES) | GI50 [1] | TGI [1] | GI50 [2] | TGI [2] | GI50 [3] | TGI [3] | GI50 [4] | TGI [4] | GI50 [5] | TGI [5] | GI50 [6] | TGI [6] | GI50 [7] | TGI [7]
COc1cc2c3c(c4c5ccccc5[nH]c4c2c(OC)c1OC)C(=O)N(CCN1CCCCC1)C3=O | 0.498 µM | 2.07 µM | 1.47 µM | 3.08 µM | 0.654 µM | 2.1 µM | 0.502 µM | 1.89 µM | 1.05 µM | 2.42 µM | 0.474 µM | 2.56 µM | 2.79 µM | 9.62 µM
O=C1OC2C(O)C(=O)OC2C1O (stereo unspecified) |  | > 100 µM |  | > 100 µM |  | > 100 µM |  | > 100 µM |  | > 100 µM |  | > 100 µM |  | > 100 µM
CCN(CC)CC(O)C1CCC(c2ccccc2)CC1 (stereo unspecified) |  | 42.3 µM |  | 37.6 µM |  | 85.5 µM |  | 45.1 µM |  | > 100 µM |  | 80.9 µM |  | 50.5 µM
Cn1c(=S)sc2nc3ccccc3n2c1=S |  | 29.4 µM |  | 38 µM |  | 27.9 µM |  | 27.4 µM |  | 33.6 µM |  | 29.2 µM |  | 28.4 µM
O=CC1(C2(C=O)c3ccccc3-c3ccccc32)c2ccccc2-c2ccccc21 | 1.68 µM | 3.66 µM | 2.8 µM | 6.98 µM | 1.56 µM | 2.85 µM |  |  |  |  | 1.8 µM | 3.53 µM | 2.16 µM | 5.29 µM
CSc1nc2c(c(=O)[nH]1)C(c1ccc(Cl)cc1)C1=C(N2)/C(=C/c2ccc(Cl)cc2)CNC1 (stereo unspecified) | 2.04 µM | 5.54 µM | 1.75 µM | 4.48 µM | 2.75 µM | 7.61 µM | 1.65 µM | 3.42 µM | 2.31 µM | 8.29 µM | 2.86 µM | 10 µM | 2.63 µM | 9.4 µM
COc1ccc(CC2C3=C(CCCC3)CCN2C)cc1 (stereo unspecified) |  | > 100 µM |  | > 100 µM |  | > 100 µM |  | > 100 µM |  | > 100 µM |  | > 100 µM |  | > 100 µM
O=C1c2ccccc2C(=O)c2c1ccc1c2OCO1 |  | > 100 µM |  | > 100 µM |  |  |  | > 100 µM |  | > 100 µM |  | > 100 µM |  | > 100 µM
NC[C@@](O)(c1ccc(Cl)cc1)c1ccc(-c2cn[nH]c2)cc1 | 0.867 µM | 2.7 µM | 3.24 µM and 2.76 µM | 52.3 µM and > 10 µM | 3.08 µM and 2.83 µM | > 100 µM | 0.298 µM and 0.328 µM | 2.51 µM and 2.05 µM | 3.75 µM and 1.82 µM |  | 2.13 µM and 1.56 µM |  | 1.7 µM | 4.57 µM
C=C1N(C)c2ccc(Cl)cc2C1(C)C | 29.1 µM | > 100 µM | 16.7 µM | 57.4 µM | 4.94 µM | 36.1 µM | 6.41 µM | 35.8 µM | 8.75 µM | > 100 µM | 5.8 µM | > 100 µM | 6.84 µM | 60.5 µM
CNC1C(OC2C(OC3C(O)C(O)C(O)C(O)C3O)OC(C)C2(O)CO)OC(CO)C(O)C1O (stereo unspecified) (tested in a mixture with another compound) |  | > 100 µM |  | > 100 µM |  | > 100 µM |  | > 100 µM |  | > 100 µM |  | > 100 µM |  | > 100 µM
CC(=O)c1ccc(NCN2C(=O)c3ccccc3C2=O)cc1 |  | > 100 µM |  | > 100 µM |  | > 100 µM |  | > 100 µM |  | > 100 µM |  | > 100 µM |  | > 100 µM
CCN1CCN(C(=O)[C@]23CCC(C)(C)C[C@@H]2C2=CC[C@@H]4[C@@]5(C)C/C(=C/c6cccnc6)C(=O)C(C)(C)[C@@H]5CC[C@@]4(C)[C@]2(C)CC3)CC1 | 1.08 µM | 2.71 µM | 1.4 µM | 2.84 µM | 1.39 µM | 2.93 µM | 1.42 µM | 2.77 µM | 1.68 µM | 3.46 µM | 1.78 µM | 3.88 µM | 1.62 µM | 4.29 µM
CCN(CC(COc1ccc2c(c1)[n+]([O-])nc(N)[n+]2[O-])OC(C)=O)C(C)=O (stereo unspecified) |  | > 100 µM |  | > 100 µM |  |  |  |  |  | > 100 µM |  | > 100 µM |  | > 100 µM
O=C(CCl)Nc1ccc2c(c1)C(=O)c1ccc(NC(=O)CCl)cc1C2=O | 0.183 µM | 0.469 µM | 0.486 µM | 2.36 µM | 0.387 µM | 1.53 µM | 0.288 µM | 0.928 µM | 0.547 µM | 2.98 µM | 0.198 µM | 0.493 µM | 1.8 µM | 4.87 µM
CC1=CC2C(C(C)C)CC1C1C(=O)OC(=O)C21 (stereo unspecified) |  | > 100 µM |  | > 100 µM |  | > 100 µM |  | > 100 µM |  | > 100 µM |  | > 100 µM |  | > 100 µM
N=c1ccn2c(n1)O[C@@H]1[C@@H](O)[C@H](CO)O[C@@H]12 | 11.4 µM | > 100 µM | > 100 µM | > 100 µM | 0.446 µM | > 100 µM | 18.1 µM | > 100 µM | 1.44 µM | > 100 µM | 4.59 µM | > 100 µM | 35 µM | > 100 µM
CC(C)Oc1ccc(C(=O)N[C@H](CNC(=O)CN(C)C)Cc2ccc(-c3cn4cccc([C@H](C)O)c4n3)cc2)cc1Cl | 0.423 µM | 19.4 µM | 0.0445 µM | 8.2 µM | 0.036 µM | 12.6 µM | 0.0711 µM | 13.4 µM | 0.0625 µM | 23.9 µM | 0.0613 µM | 21.6 µM | 1.36 µM | 11.3 µM
C[C@]12CC[C@H]3[C@@H](C[C@@H]4N=C(c5ccc(O)cc5)S[C@@]45C[C@H](O)CC[C@]35C)[C@@H]1CC[C@@H]2O | 2.43 µM | 20.7 µM | 6.98 µM | 32.8 µM | 4.94 µM | > 100 µM | 0.377 µM | 1.31 µM | 7.95 µM | > 100 µM | 8.4 µM | > 100 µM | 19.1 µM | > 100 µM
Cc1nc2cc(N)c(Cl)cc2[nH]1 |  | > 100 µM |  | > 100 µM |  | > 100 µM |  |  |  | > 100 µM |  | > 100 µM |  | > 100 µM
O=[N+]([O-])c1ccc(-c2cn(-c3ccc(Cl)cc3)cn2)cc1 |  | > 100 µM |  | > 100 µM |  | > 100 µM |  |  |  | > 100 µM |  | > 100 µM |  | > 100 µM
